For the experiment, the system named is whole blood of youth with OUD and healthy controls. It is filed as cell-based, human.

Entries after “also recorded” stand apart in the source; their conditions may differ.

In the case of monophosphoryl lipid A [MPLA], the “induction of cytokines and chemokines such as IL-12p40, IL-6, CXCL8, CXCL10, CCL2 and TNF” value is recorded as “reduced; also recorded: impaired”. Take `CCOCc1nc2c(N)nc3ccccc3c2n1CC(C)(C)O` [Formula R848, resiquimod]: the Th-polarizing cytokine production result is “robust and balanced”.

These data come from patent US20230310438A1 (priority 2019, published 2023).
